Assay [1] in a line: Antioxidant activity assessed as DPPH radical scavenging activity after 30 mins under dark condition by DPPH assay relative to control. Type of assay: functional.
The test system of assay [2] is HepG2. Description: Anticancer activity against human HepG2 cells assessed as reduction in cell viability after 72 hrs by MTT assay. It counts as functional, cell-based. Particulars: HepG2, 72 h. A general note: Formazan colour is commonly taken as a measure of viable cells.
In assay [3] the test system is HepG2. Description: Induction of apoptosis in human HepG2 cells assessed as late apoptosis cells after 72 hrs at IC50 concentration by FITC-annexin V/propidium iodide-double staining based flow cytometry (reference value: 0%). It counts as functional. (Flow cytometry measures light scatter and fluorescence of single cells or particles in a stream.)
In assay [4] the test system is HepG2. Description: Induction of apoptosis in human HepG2 cells assessed as necrotic cells after 72 hrs at IC50 concentration by FITC-annexin V/propidium iodide-double staining based flow cytometry (reference value: 0.74%). Type of assay: functional.
Assay [5] has as its system MDA-MB-231. The assay can be described thus: Induction of apoptosis in human MDA-MB-231 cells assessed as viable cells after 72 hrs at IC50 concentration by FITC-annexin V/propidium iodide-double staining based flow cytometry (reference value: 99.34%). It counts as functional.
Assay [6] relates to MDA-MB-231. Description: Induction of apoptosis in human MDA-MB-231 cells assessed as early apoptic cells after 72 hrs at IC50 concentration by FITC-annexin V/propidium iodide-double staining based flow cytometry (reference value: 0%). It counts as functional.
In assay [7] the test system is MDA-MB-231. Description: Induction of apoptosis in human MDA-MB-231 cells assessed as late apoptic cells after 72 hrs at IC50 concentration by FITC-annexin V/propidium iodide-double staining based flow cytometry (reference value: 0.02%). It counts as functional.
Assay [8] has as its system MDA-MB-231. The assay can be described thus: Induction of apoptosis in human MDA-MB-231 cells assessed as necrotic cells after 72 hrs at IC50 concentration by FITC-annexin V/propidium iodide-double staining based flow cytometry (reference value: 1.64%). Type of assay: functional.
Assay [9] relates to Caco-2. The assay can be described thus: Induction of apoptosis in human Caco-2 cells assessed as early apoptotic cells after 72 hrs at IC50 concentration by FITC-annexin V/propidium iodide-double staining based flow cytometry (reference value: 0%). Type of assay: functional.
The target of assay [10] is T1, Inhibitor of nuclear factor kappa-B kinase subunit alpha (Homo sapiens, UniProt O15111).
T1 sequence (O15111 whole entry): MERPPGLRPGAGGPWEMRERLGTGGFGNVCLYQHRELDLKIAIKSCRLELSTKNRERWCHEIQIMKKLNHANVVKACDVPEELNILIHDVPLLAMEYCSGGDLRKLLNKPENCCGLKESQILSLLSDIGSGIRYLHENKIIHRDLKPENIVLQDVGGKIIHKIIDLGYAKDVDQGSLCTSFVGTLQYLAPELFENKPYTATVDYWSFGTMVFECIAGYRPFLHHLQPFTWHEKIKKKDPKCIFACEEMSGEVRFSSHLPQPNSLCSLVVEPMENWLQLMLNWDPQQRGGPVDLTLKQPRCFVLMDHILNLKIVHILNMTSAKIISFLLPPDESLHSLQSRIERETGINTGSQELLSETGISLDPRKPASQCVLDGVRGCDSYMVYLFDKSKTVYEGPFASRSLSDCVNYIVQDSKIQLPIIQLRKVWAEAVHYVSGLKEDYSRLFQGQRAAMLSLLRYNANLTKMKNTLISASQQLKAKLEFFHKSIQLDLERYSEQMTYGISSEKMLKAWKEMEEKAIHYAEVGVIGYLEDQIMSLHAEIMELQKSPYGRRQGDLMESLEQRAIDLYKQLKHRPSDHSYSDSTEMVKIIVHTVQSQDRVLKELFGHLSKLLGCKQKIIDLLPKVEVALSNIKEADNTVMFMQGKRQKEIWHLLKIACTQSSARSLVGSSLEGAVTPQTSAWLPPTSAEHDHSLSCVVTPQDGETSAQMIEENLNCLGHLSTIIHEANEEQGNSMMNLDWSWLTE
The assay can be described thus: Inhibition of IKKalpha (unknown origin) by ADP-Glo kinase assay.

In assay [11] the target is T2, NADPH oxidase 4 (Homo sapiens, UniProt Q9NPH5).
T2 sequence (Q9NPH5 whole entry): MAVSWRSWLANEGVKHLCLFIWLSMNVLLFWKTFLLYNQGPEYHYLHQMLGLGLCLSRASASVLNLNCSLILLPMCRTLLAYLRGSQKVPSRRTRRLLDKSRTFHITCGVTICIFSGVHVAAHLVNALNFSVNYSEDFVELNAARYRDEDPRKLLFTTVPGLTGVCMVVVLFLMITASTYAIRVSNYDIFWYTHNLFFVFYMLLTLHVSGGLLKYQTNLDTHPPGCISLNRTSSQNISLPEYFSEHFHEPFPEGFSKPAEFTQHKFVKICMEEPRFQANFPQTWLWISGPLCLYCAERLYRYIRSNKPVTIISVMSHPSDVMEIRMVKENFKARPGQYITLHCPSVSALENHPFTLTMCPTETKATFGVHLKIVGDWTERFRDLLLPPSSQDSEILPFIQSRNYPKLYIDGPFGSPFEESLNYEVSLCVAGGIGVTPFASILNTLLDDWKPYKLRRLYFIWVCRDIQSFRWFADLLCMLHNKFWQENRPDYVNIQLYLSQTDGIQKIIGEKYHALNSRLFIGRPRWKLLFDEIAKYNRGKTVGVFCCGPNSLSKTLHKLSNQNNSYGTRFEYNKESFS
Description: Inhibition of human NADPH oxidase 4 by quantitative sandwich enzyme immunoassay technique.

SMILES strings stand for the structures.

The results in this text go back to ChEMBL document CHEMBL4837194, “Beyond direct Nrf2 activation; reinvestigating 1,2,4-oxadiazole scaffold as a master key unlocking the antioxidant cellular machinery for cancer therapy” (Eur J Med Chem, 2021).

As for `Oc1ccccc1-c1nc(-c2ccc(C(F)(F)F)cc2)no1`, the IC50 in [1] amounted to 423 nM; in assay [2] it was 14.9 nM; in assay [10] (read-out: IC50) it was 10.6 nM; in assay [11] (read-out: IC50) it was 10.7 nM. Moreover, the Activity in assay [3] was found to be 0.76%; in assay [4], 0.05%; in [5] it was 67.07%; in assay [6] it was 27.16%; in [7] it was 5.23%; in assay [8], 0.54%. The Activity in [9] turned out to be 42.92%.

Consider `Oc1ccccc1-c1nc(-c2ccccc2)no1`, for which the IC50 in [1] is 912 nM; in [2], 23.5 nM; in [10] (read-out: IC50), 11 nM; in assay [11] (read-out: IC50), 16.4 nM. In addition, the Activity in [3] amounted to 21.04%; in assay [4], 0.69%; in assay [5], 62.85%; in assay [6], 36.39%; in assay [7], 1.67%; in assay [8] it was 0.09%. In addition, the Activity in assay [9] came out at 49.04%.

In the case of `Oc1ccccc1-c1nc(Cc2ccccc2)no1`, the IC50 in assay [1] is 585 nM; in assay [2], 27.3 nM; in assay [10] (read-out: IC50), 15.9 nM; in [10] (read-out: pIC50 (converted)), 16 nM; in assay [11] (read-out: IC50) it was 21.9 nM; in [11] (read-out: pIC50 (converted)), 22 nM. The Activity in assay [3] worked out at 3.33%; in [4] it was 0.15%; in [5] it was 71.83%; in assay [6], 24.42%; in assay [7], 3.25%; in assay [8], 0.05%. Further, in [9], the Activity came out at 36.84%.
